# Source: patent publication US11584765B2 (priority 2017, dated 2023)
# Counter-ions that a name gives are not always drawn.
# Test system: C57BL/6 mice
# Experiment: animal or person
# Format: in vivo
# Details: Mus musculus, sc, 0.5 h, s.c. administration, 30 min, 55° C. water, read-out: ED50 (mg/kg) at 30 min on C57BL/6 mice in Warm-water Tail-flick Test
row,Compound,ED50 [mg/kg]
1,"CC(c1cccnc1)N1CCC(CCc2cccs2)(c2ccccn2)CC1.Cl (stereo not drawn) [Compound 447, 2-(1-(1-(pyridin-3-yl)ethyl)-4-(2-(thiophen-2-yl)ethyl)piperidin-4-yl)pyridine HCl]",< 10
2,Cl.Cn1cc(CN2CCC(CCc3cccs3)(c3ccccn3)CC2)cn1 [Compound 448],< 10
3,"CCOC[C@@]1(CCc2nc(C)cs2)CCN(C(C)(C)c2ccc(C)nc2)C1.Cl [Compound 449, (S)-2-(2-(3-(ethoxymethyl)-1-(2-(6-methylpyridin-3-yl)propan-2-yl)pyrrolidin-3-yl)ethyl)-4-methylthiazole HCl]",< 10
4,"CCOC[C@@]1(CCc2nc(C)c(C)s2)CCN(C(C)(C)c2ccc(C)nc2)C1.Cl [Compound 450, (S)-2-(2-(3-(ethoxymethyl)-1-(2-(6-methylpyridin-3-yl)propan-2-yl)pyrrolidin-3-yl)ethyl)-4,5-dimethylthiazole HCl]",< 10
5,"CCOCC1(CCc2cccs2)CCCN1Cc1cccnc1.Cl (stereo not drawn) [Compound 451, 3-((2-(ethoxymethyl)-2-(2-(thiophen-2-yl)ethyl)pyrrolidin-1-yl)methyl)pyridine HCl]",< 10
6,"CCOC[C@@]1(CCc2cccs2)CCN(Cc2ccc(OC)nc2)C1.Cl [Compound 452, (S)-5-((3-(ethoxymethyl)-3-(2-(thiophen-2-yl)ethyl)pyrrolidin-1-yl)methyl)-2-methoxypyridine HCl]",< 10
7,"CCOC[C@@]1(CCc2cccs2)CCN(C(C)(C)c2ccc(OC)nc2)C1.Cl [Compound 453, (S)-5-(2-(3-(ethoxymethyl)-3-(2-(thiophen-2-yl)ethyl)pyrrolidin-1-yl)propan-2-yl)-2-methoxypyridine HCl]",< 10
8,"CCOC[C@@]1(CCc2cccs2)CCN(Cc2ccc(=O)[nH]c2)C1.Cl [Compound 454, (S)-5-((3-(ethoxymethyl)-3-(2-(thiophen-2-yl)ethyl)pyrrolidin-1-yl)methyl)pyridin-2(1H)-one HCl]",> 10
9,"CCOCC1(CCC2CCCS2)CCCN1Cc1cccnc1.Cl (stereo not drawn) [Compound 455, 3-((2-(ethoxymethyl)-2-(2-(tetrahydrothiophen-2-yl)ethyl)pyrrolidin-1-yl)methyl)pyridine HCl]",> 10
10,"CCOC[C@@]1(CCc2nc3ncncc3[nH]2)CCN(C(C)(C)c2ccc(C)nc2)C1 [Compound 456, (S)-8-(2-(3-(ethoxymethyl)-1-(2-(6-methylpyridin-3-yl)propan-2-yl)pyrrolidin-3-yl)ethyl)-7H-purine citrate]",< 10
11,"CCOC[C@@]1(CCC2CC2)CCN(C(C)(C)c2ccc(C)nc2)C1 [Compound 457, (S)-5-(2-(3-(2-cyclopropylethyl)-3-(ethoxy-methyl)pyrrolidin-1-yl)propan-2-yl)-2-methylpyridine citrate]",< 10
12,"CCOC[C@@]1(COCc2ccccc2)CCN(C(C)(C)c2ccc(C)nc2)C1.Cl [Compound 458, (R)-5-(2-(3-((benzyloxy)methyl)-3-(ethoxy-methyl)pyrrolidin-1-yl)propan-2-yl)-2-methylpyridine HCl]",< 10
13,"CCCCC[C@]1(COCC)CCN(C(C)(C)c2ccc(C)nc2)C1.Cl [Compound 459, (S)-5-(2-(3-(ethoxymethyl)-3-pentylpyrrolidin-1-yl)propan-2-yl)-2-methylpyridine HCl]",< 10
14,"CCOCC1CCN(C(C)(C)c2ccc(C)nc2)C1.Cl (stereo not drawn) [Compound 460, 5-(2-(3-(ethoxy-methyl)pyrrolidin-1-yl)propan-2-yl)-2-methylpyridine HCl]",< 10
15,"CCOC[C@@]1(CCc2nc3ncncc3n2Cc2ccc(OC)cc2)CCN(C(C)(C)c2ccc(C)nc2)C1 [Compound 461, (S)-8-(2-(3-(ethoxymethyl)-1-(2-(6-methylpyridin-3-yl)propan-2-yl)pyrrolidin-3-yl)ethyl)-7-(4-methoxybenzyl)-7H-purine citrate]",< 10
16,"CCOC[C@@]1(CCc2sccc2C)CCN(Cc2cccnc2)C1 [Compound 462, (S)-3-((3-(ethoxymethyl)-3-(2-(3-methylthiophen-2-yl)ethyl)pyrrolidin-1-yl)methyl)pyridine]",< 10
17,"CCOC[C@@]1(CCc2ccc(C)s2)CCN(Cc2cccnc2)C1 [Compound 463, (S)-3-((3-(ethoxymethyl)-3-(2-(5-methylthiophen-2-yl)ethyl)pyrrolidin-1-yl)methyl)pyridine]",< 10
18,"CCOC[C@@]1(CCc2ccsc2C)CCN(Cc2cccnc2)C1 [Compound 464, (S)-3-((3-(ethoxymethyl)-3-(2-(2-methylthiophen-3-yl)ethyl)pyrrolidin-1-yl)methyl)pyridine]",< 10
19,"CCOC[C@@]1(CCC2CC2)CCN(C2(c3ccc(C)nc3)CC2)C1 [Compound 466, (S)-5-(1-(3-(2-cyclopropylethyl)-3-(ethoxy-methyl)pyrrolidin-1-yl)cyclopropyl)-2-methylpyridine]",< 10
20,"Cc1ccc(CN2[C@@H](C)CC(CCc3ccc(F)cn3)(c3ccccn3)C[C@@H]2C)cn1 (stereo partly drawn) [Compound 467, 2-(2-((2S,6S)-2,6-dimethyl-1-((6-methylpyridin-3-yl)methyl)-4-(pyridin-2-yl)piperidin-4-yl)ethyl)-5-fluoropyridine]",> 10
21,"Cc1ccc(C(C)(C)N2CC[C@](CCc3cccs3)([C@@H]3CCC(C)(C)O3)C2)cn1 [Compound 468, 5-(2-((S)-3-((S)-5,5-dimethyltetrahydro-furan-2-yl)-3-(2-(thiophen-2-yl)ethyl)pyrrolidin-1-yl)propan-2-yl)-2-methylpyridine]",< 10
